Here are results for one molecule from ChEMBL document CHEMBL1154404 (Antimicrob Agents Chemother, 2007).

As a reminder, the half-life is how long it takes for the measured level to halve. Read a low half-life as fast loss.

The species entered for data set [1] is Homo sapiens. Description: Drug elimination in healthy human assessed as cytochrome-dependent hepatic metabolism-mediated kidney elimination. In kind it is ADME, organism-based. The following applies: in vivo.
The nature of data set [2]: Plasma concentration in fatty-liver cirrhosis patient plasma treated at 2 mg, po twice a day for 30 days measured after 15 hrs of last dose. In kind it is ADME, organism-based. As to conditions: human.
The species entered for data set [3] is Homo sapiens. Description: Drug elimination in healthy human assessed as cytochrome-dependent hepatic metabolism-mediated biliary elimination. Format: ADME, organism-based. As to conditions: in vivo.
Data set [4] is described as follows: Half life in fatty-liver cirrhosis patient treated at 2 mg, po twice a day for 30 days measured after 2 days of last dose. Format: ADME, organism-based. The following applies: human, in vivo.
Data set [5] can be described thus: Plasma concentration in fatty-liver cirrhosis patient plasma treated at 2 mg, po twice a day for 30 days measured after 2 days of last dose. Format: ADME, organism-based. The following applies: human.
Data set [6] has as its system Homo sapiens. Description: Volume of distribution in healthy human at 2 mg, po twice a day for 30 days measured after 2 days of last dose. Format: ADME, organism-based. The following applies: in vivo, 48 h.
The test system of another data set is Plasma. Put plainly: Drug level in patient plasma. In kind it is ADME, cell-free. The following applies: human.
For data set [7], the system named is Homo sapiens. Put plainly: Volume of distribution in fatty-liver cirrhosis patient treated at 2 mg, po twice a day for 30 days measured after 2 days of last dose. Format: ADME, organism-based. As to conditions: in vivo, 48 h.
A short description of data set [8]: Plasma concentration in fatty-liver cirrhosis patient treated at 2 mg, po twice a day for 30 days measured after 11 days of last dose. Format: ADME, organism-based. The following applies: human.
Data set [9] is described as follows: Half life in healthy human at 2 mg, po twice a day for 30 days measured after 2 days of last dose. Format: ADME, organism-based. The following applies: in vivo.

Regarding `C[C@@H](c1ncncc1F)[C@](O)(Cn1cncn1)c1ccc(F)cc1F` [VORICONAZOLE], the Activity in the data set listed under Homo sapiens [1] is reported as 80%; in the data set listed under Homo sapiens [3], 20%. The molecule further displayed a concentration at 15 h in data set [2] of 13900 ng/mL. Further, the half-life was 53.1 h in [4] and 4.7 h in data set [9]. The concentration at 48 h in data set [5] came out at 10000 ng/mL. Also, the Vd was determined as 2.04 L/kg with Homo sapiens [6] and 0.13 L/kg in the data set on Homo sapiens [7]. In addition, the Drug uptake in the data set with Plasma is above 2.05 µg/mL. The concentration at 264 h in data set [8] came to 660 ng/mL.
